What was measured:
Assay type in all cases: functional, cell-based
A549 [1] = assay: Antiproliferative activity against human A549 cells assessed as reduction in cell viability after 48 hrs by CellTiter-Blue assay; conditions: A549, 48 h
HT-29 [2] = assay: Antiproliferative activity against human HT-29 cells assessed as reduction in cell viability incubated for 72 hrs by MTT assay; conditions: HT-29, 72 h
HeLa = assay: Anticancer activity against human HeLa cells assessed as inhibition of cell growth
HCT-116 = assay: Antiproliferative activity against human HCT-116
ZR-75-1 [3] = assay: Antiproliferative activity against multi-drug resistant human ZR-75-1 cells assessed as reduction in cell viability
MCF7 = assay: Antiproliferative activity against Doxorubicin resistant human MCF7 cells assessed as reduction in cell viability
ZR-75-1 [4] = assay: Antiproliferative activity against human ZR-75-1 cells assessed as reduction in cell viability celltiter-Glo assay
H69AR [5] = assay: Antiproliferative activity against multi-drug resistant human NCI-H69AR assessed as reduction in cell viability
HT-29 [6] = assay: Antiproliferative activity against human HT-29 cells assessed as reduction in cell viability celltiter-Glo assay
A549 [7] = assay: Antiproliferative activity against human Non-small-cell lung cancer A549 cells assessed as reduction in cell viability incubated for 72 hrs by MTT assay; conditions: A549, 72 h
H69AR [8] = assay: Antiproliferative activity against multidrug resistant human NCI-H69AR assessed as inhibition of cell proliferation by MTT assay

Row | IC50 (HeLa) [µM] | IC50 (HCT-116) [µM] | IC50 (MCF7) [µM] | IC50 (HT-29 [6]) [µM] | IC50 (A549 [7]) [µM] | Compound | IC50 (A549 [1]) [µM] | IC50 (HT-29 [2]) [µM] | IC50 (ZR-75-1 [3]) [µM] | IC50 (ZR-75-1 [4]) [µM] | IC50 (H69AR [5]) [µM] | IC50 (H69AR [8]) [µM]
1 |  |  |  |  |  | COc1ccc2c(c1)/C(=N/NC(=O)c1cc3cc(OC)ccc3[nH]1)C(=O)N2Cc1ccccc1 | 0.54 | 2.94 |  |  |  | 
2 | 6.23 | 6.23 |  |  |  | O=C1/C(=N\O)c2ccccc2N1CCOCCN1C(=O)/C(=N/O)c2ccccc21 |  |  |  |  |  | 
3 |  |  | > 100 | 10.1 | 3.06 | CCN(CC)CCNC(=O)c1c(C)[nH]c(/C=C2\C(=O)Nc3ccc(F)cc32)c1C [SUNITINIB] | 10.1 |  | 18.9 | 5.87 | 5.8 | 5.8
